Results from the NIST ThermoML archive (doi:10.1021/acs.jced.6b00470).

Assay: refractive index (other wavelength) (dimensionless)
Conditions: 100 kPa, Liquid, Standard Abbe refractometry

COC(=O)c1ccc(C(C)(C)C)cc1 [methyl 4-tert-butylbenzoate]
refractive index
Conditions	308.15 K	313.15 K	318.15 K	323.15 K	328.15 K	333.15 K	338.15 K	343.15 K	348.15 K	353.15 K
Wavelength=404.7 nm	–	1.5307	1.52841	1.52614	1.52383	1.52158	1.51926	1.51699	1.5147	1.51239
Wavelength=435.8 nm	–	1.52231	1.52004	1.5178	1.51554	1.51332	1.51104	1.50881	1.50655	1.50427
Wavelength=486.1 nm	–	1.5129	1.5107	1.50849	1.50627	1.50407	1.50186	1.49967	1.49745	1.49523
Wavelength=546.1 nm	1.50756	1.50548	1.50329	1.50112	1.49894	1.49678	1.4946	1.49246	1.49026	1.48807
Wavelength=587.6 nm	1.50382	1.50185	1.4997	1.49755	1.49537	1.49326	1.49108	1.48895	1.48678	1.48461
Wavelength=589.3 nm	1.50368	1.50172	1.49957	1.49742	1.49525	1.49314	1.49096	1.48883	1.48667	1.48449
Wavelength=632.8 nm	1.50107	1.49872	1.49659	1.49445	1.49225	1.4902	1.48801	1.48591	1.48376	1.48162
Wavelength=644 nm	1.50004	1.49802	1.49589	1.49375	1.49161	1.4895	1.48735	1.48523	1.48309	1.48094
Wavelength=706.5 nm	1.49686	1.49479	1.49268	1.49056	1.48842	1.48634	1.48419	1.48208	1.47995	1.47781
